Measurements: US7618996B2, “Diaryl ether derivatives and uses thereof” (Pfizer Inc., priority 2006, dated 2009)
Counter-ions that a name gives are not always drawn.

Columns and labels:
mu opioid receptor [1] = target: T1, mu opioid receptor (Homo sapiens, UniProt P35372); assay: GTPγ[35S] binding assay at mu opioid receptor (antagonist vs β-endorphin); type: biochemical; design: expressed in transfected cells; settings: average Ki; membranes, challenged with β-endorphin (1 μM)
Procedure: (§1) GTPγ[^35S] Binding Assays at Opioid Receptors
(§2) Membranes were prepared from cells as described (Bass et al, 1996). GTPγ[^35S] binding assays were performed in a 96 well FlashPlate™ format in duplicate using 100 pM GTPγ[^35S] and 5 μg membrane per well in assay buffer composed of 50 mM Tris HCl, pH 7.4, 5 mM MgCl2, 1 mM EDTA, 100 mM NaCl, 30 μM GDP, 0.1% bovine serum albumin and the following protease inhibitors: 100 μg/ml bacitracin, 100 μg/ml benzamidine, 5 μg/ml aprotinin, 5 μg/ml leupeptin. The assay mix was then incubated at 30° C. with increasing concentrations of antagonist (10^−10 M to 10^−5 M) for 10 minutes and challenged with the agonists BW-373U86 (1 nM), dynorphin-A (10 nM), β-endorphin (1 μM) for opioid receptors delta, kappa, and mu, respectively. The assays were performed at 30° C. for one hour. The FlashPlates were then centrifuged at 2000×g for 10 minutes. Stimulation of GTPγ[^35S] binding was then quantified using a Wallac Microbeta and Ki calculations were done using Prism™ by Graphpad. […] Each of the compounds listed below were tested as their hydrochloride salts unless indicated otherwise. Those Example Numbers with an asterisk (*) were tested as their free base.

kappa opioid receptor [2] = target: T2, kappa opioid receptor (Homo sapiens, UniProt P41145); assay: GTPγ[35S] binding assay at kappa opioid receptor (antagonist vs dynorphin-A); type: biochemical; design: expressed in transfected cells; settings: average Ki; membranes, challenged with dynorphin-A (10 nM)
T2 sequence (P41145 whole entry): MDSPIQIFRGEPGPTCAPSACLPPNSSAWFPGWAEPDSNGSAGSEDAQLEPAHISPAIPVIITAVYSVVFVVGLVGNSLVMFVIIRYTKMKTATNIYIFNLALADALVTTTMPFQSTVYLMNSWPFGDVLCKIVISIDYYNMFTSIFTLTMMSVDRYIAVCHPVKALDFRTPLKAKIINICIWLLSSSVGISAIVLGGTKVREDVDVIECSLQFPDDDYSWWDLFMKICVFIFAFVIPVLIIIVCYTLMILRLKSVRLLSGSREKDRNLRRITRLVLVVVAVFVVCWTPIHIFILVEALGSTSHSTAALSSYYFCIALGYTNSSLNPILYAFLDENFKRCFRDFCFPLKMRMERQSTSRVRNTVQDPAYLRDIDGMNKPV
Procedure: as §1, §2

delta opioid receptor [3] = target: T3, delta opioid receptor (Homo sapiens, UniProt P41143); assay: GTPγ[35S] binding assay at delta opioid receptor (antagonist vs BW-373U86); type: biochemical; design: expressed in transfected cells; settings: average Ki; membranes, challenged with BW-373U86 (1 nM)
T3 sequence (P41143 whole entry): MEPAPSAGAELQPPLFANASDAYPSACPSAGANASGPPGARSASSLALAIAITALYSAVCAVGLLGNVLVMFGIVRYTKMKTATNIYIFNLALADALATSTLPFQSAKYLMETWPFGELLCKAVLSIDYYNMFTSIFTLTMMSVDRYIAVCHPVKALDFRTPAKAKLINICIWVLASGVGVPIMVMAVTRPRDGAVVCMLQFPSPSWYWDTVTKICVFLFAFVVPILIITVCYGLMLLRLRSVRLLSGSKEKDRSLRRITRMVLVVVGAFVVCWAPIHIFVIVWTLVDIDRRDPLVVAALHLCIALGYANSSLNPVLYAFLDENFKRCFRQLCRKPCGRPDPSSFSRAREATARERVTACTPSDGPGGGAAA
Procedure: as §1, §2

mu opioid receptor [4] = target: T1, mu opioid receptor; settings: literature (Statnick 2003; Zimmerman 1993); cited from earlier work
kappa opioid receptor [5] = target: T2, kappa opioid receptor; settings: literature (Statnick 2003; Zimmerman 1993); cited from earlier work
delta opioid receptor [6] = target: T3, delta opioid receptor; settings: compared with mu and kappa; literature; cited from earlier work
[7] = Pharmacokinetic experiment, IV in rats; type: in vivo, rat; settings: male JVC/CAC rats, 1 mg/kg IV; for half-life / clearance / Vd: rat, plasma; for clearance: average of two rats; for Vd: read-out: volume of distribution
Procedure: A representative compound of the present invention (Example 1A) and a comparator compound (Example 2A) were individually dosed into two different male JVC/CAC rats at 1 mg/kg in a 10% ethanol and 90% (30% beta-cyclodextrin sulfobutylether) vehicle. Blood was subsequently collected at 0.083, 0.25, 0.5, 1, 2, 4, 6, 8 and 20 hours post IV administration. After spinning the blood samples down to get plasma, the plasma concentrations were determined by LC/MS/MS. The pharmacokinetic (PK) analysis was determined by inputting the resultant time concentration data into a Watson™ Laboratory Information Management System (LIMS).

[8] = literature (Shaw 1991, 1993; Levine 1991); cited from earlier work

T1 sequence (P35372 whole entry): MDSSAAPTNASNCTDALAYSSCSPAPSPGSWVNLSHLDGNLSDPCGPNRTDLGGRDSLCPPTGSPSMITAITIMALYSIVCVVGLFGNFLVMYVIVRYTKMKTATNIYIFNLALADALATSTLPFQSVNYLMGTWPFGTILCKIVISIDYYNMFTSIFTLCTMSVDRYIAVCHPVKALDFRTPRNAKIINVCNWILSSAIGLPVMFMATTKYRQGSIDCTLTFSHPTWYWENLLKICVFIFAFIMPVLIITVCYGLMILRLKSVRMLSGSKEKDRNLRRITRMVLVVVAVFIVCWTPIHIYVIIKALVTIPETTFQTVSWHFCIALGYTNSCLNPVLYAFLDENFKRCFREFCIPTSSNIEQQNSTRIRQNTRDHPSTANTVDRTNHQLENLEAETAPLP

SMILES	Ki (mu opioid receptor [1]) [nM]	Ki (kappa opioid receptor [2]) [nM]	Ki (delta opioid receptor [3]) [nM]	also measured
NC(=O)c1ccc(Oc2ccc(CNC3Cc4ccccc4C3)cc2F)cc1O [Example 3B]	0.00412	0.0348	0.041	–
CC1CNCCC1(C)c1cccc(O)c1 (stereo not shown) [LY515300, 3,4-dimethyl-4-(3-hydroxyphenyl)piperidine]	–	–	–	binding affinity for the mu-opioid receptor subtype (mu opioid receptor [4]): sub-nanomolar; binding affinity for the kappa-opioid receptor subtype (kappa opioid receptor [5]): sub-nanomolar; affinity for the delta-opioid receptor (delta opioid receptor [6]): lower affinity
NC(=O)c1ccc(Oc2ccc(CNC[C@H]3CCCO3)cc2F)cc1O [Example 3G]	3.91	1.09	10.3	–
NC(=O)c1ccc(Oc2ccc(CNCC3CCCO3)cc2F)cc1O (stereo not shown) [Example 3E]	1.17	0.47	3.25	–
NC(=O)c1ccc(Oc2c(F)cc(CNCCC3CCOCC3)cc2F)cc1O [Example 4E]	0.0963	0.419	0.352	–
CC(C)OCCNCc1ccc(Oc2ccc(C(N)=O)c(O)c2)c(F)c1 [Example 3C]	1.65	3.78	1.68	–
NC(=O)c1ccc(Oc2ccc(CNCC3(O)CCCCC3)cc2F)cc1O [Example 3I]	0.158	0.215	3.33	–
C[C@H]1CN(CC[C@H](O)C2CCCCC2)CC[C@@]1(C)c1cccc(O)c1 [LY255582]	–	–	–	anorectic effects [8]: robust anorectic effects
NC(=O)c1ccc(Oc2ccc(CNCC3CCOCC3)cc2F)cc1O [Example 3H]	4.9	1.56	3.02	–
CC(C)CCNCc1cc(F)c(Oc2ccc(C(N)=O)c(O)c2)c(F)c1 [Example 4A, 4-(2,6-difluoro-4-{[(3-methybutyl)amino]methyl}phenoxy)-2-hydroxybenzamide]	0.094	0.164	0.465	–
CC(C)CCNCc1ccc(Oc2cccc(O)c2)c(F)c1.Cl [Example 2A, 3-(2-fluoro-4-{[(3-methylbutyl)amino]-methyl}phenoxy)phenol, hydrochloride salt]	16.7	47.1	25.4	clearance relative to hepatic blood flow [7]: approximately 5 times hepatic blood flow; half-life [7]: 0.7 h; clearance [7]: 361 mL/min/kg; Vd [7]: 10 L/kg
CC[C@@H](NCc1ccc(Oc2ccc(C(N)=O)c(O)c2)c(F)c1)c1ccccn1 [Example 3J]	26.2	13.8	16.6	–
NC(=O)c1ccc(Oc2c(F)cc(CNC[C@@H]3CCCO3)cc2F)cc1O [Example 4D]	0.346	0.184	4.87	–

Continued by falling Ki (kappa opioid receptor [2]), values first:

Ki (mu opioid receptor [1]) [nM]	Ki (kappa opioid receptor [2]) [nM]	Ki (delta opioid receptor [3]) [nM]	SMILES	also measured
0.92	5.35	0.687	NC(=O)c1ccc(Oc2ccc(CNCCOc3ccccc3)cc2F)cc1O [Example 3D]	–
0.335	0.652	0.64	CC(C)CCNCc1ccc(Oc2ccc(C(N)=O)c(O)c2)c(F)c1 [Example 1A, 4-(2-fluoro-4-{[(3-methylbutyl)amino]methyl}phenoxy)-2-hydroxybenzamide, hydrochloride salt]	half-life [7]: 2.9 h; clearance [7]: 18.6 mL/min/kg; Vd [7]: 2 L/kg
0.312	0.39	0.62	NC(=O)c1ccc(Oc2ccc(CNCCC3CC3)cc2F)cc1O [Example 3A, 4-(4-{[(2-cyclopropylethyl)amino]methyl}-2-fluorophenoxy)-2-hydroxybenzamide, hydrochloride salt]	–
0.167	0.244	1.1	NC(=O)c1ccc(Oc2c(F)cc(CNCCC3CC3)cc2F)cc1O [Example 4C]	–
0.855	0.235	2.23	NC(=O)c1ccc(Oc2ccc(CNC[C@@H]3CCCO3)cc2F)cc1O [Example 3F]	–
–	0.0848	0.0543	NC(=O)c1ccc(Oc2c(F)cc(CNC3Cc4ccccc4C3)cc2F)cc1O [Example 4F]	–
0.0772	0.0731	0.866	NC(=O)c1ccc(Oc2c(F)cc(CNC3CCCCC3)cc2F)cc1O [Example 4B]	–
